Patent publication EP2930248B1, “METHOD FOR PREDICTING SENSITIVITY OF OSTEOSARCOMA PATIENT TO ANTICANCER AGENT” (National Cancer Center, priority 2014, dated 2015)

Assays:
143B = assay: Sensitivity test: cell viability (Cell Counting Kit-8) after anticancer agent, RNA-transfected cells; format: cell-based, Human; settings: 143B cells, MTX 72 hours, DOX and CDDP 48 hours
Procedure: (§1) Human osteosarcoma cell lines used were MNNG/HOS, MG63 and 143B. The cells were seeded in a 96-well plate at 3 x 10^3 cells/well. After 24 hours, the medium was replaced with fresh medium and miRNA-100 (SEQ ID NO: 1), miRNA-125b (SEQ ID NO: 2) or negative control (nonsense RNA) (microRNA control, Non-target RNA (S10CM0600; COSMO BIO Co., Ltd)) was introduced to the cells using DharmaFECT transfection reagents (Thermo Scientific). At 24 hours after RNA introduction, the medium was replaced with fresh medium. Specific procedures followed the protocol attached to the gene transfer reagents used.
(§2) Methotrexate (MTX), doxorubicin (DOX) and cisplatin (CDDP) were applied to the cells lines MNNG/HOS, MG63 or 143B to which various RNAs were introduced under following conditions followed by incubation over a certain period. The viability of the cells thereafter was measured with the Cell Counting Kit-8 (Dojindo Laboratories). Specific procedures followed the protocol attached to the kit used.
(§3) Methotrexate (MTX): applied at a final concentration of 0 to 32 µM and incubated for 72 hours.
(§4) Doxorubicin (DOX): applied at a concentration of 0 to 1.3 µM and incubated for 48 hours.
(§5) Cisplatin (CDDP): applied at a final concentration of 0 to 32 µM and incubated for 48 hours.
(§6) From the results of measurement of the viability of the cells, the 50% inhibitory concentration of cell proliferation (IC50) for each anticancer agent was determined.

MG63 = assay: as above; format: cell-based, Human; settings: MTX 72 hours, DOX and CDDP 48 hours
Procedure: as §1, §2, §3, §4, §5, §6

MNNG/HOS = assay: as above; format: cell-based, Human; settings: MTX 72 hours, DOX and CDDP 48 hours
Procedure: as §1, §2, §3, §4, §5, §6

BAK1 = BAK1 protein expression by western blotting in RNA-transfected MNNG/HOS cells; format: cell-based, human; settings: with application of DOX 64 µM, 48 hours, Fig. 8
Procedure: as §1, with “A human” for “Human”, “line” for “lines”, “was MNNG/HOS.” for “were MNNG/HOS, MG63 and 143B.”, “and” for “and miRNA-100 (SEQ ID NO: 1),”
Doxorubicin (DOX) at a final concentration of 0 µM or 64 µM was applied to MNNG/HOS cells to which various RNAs were introduced as above (1) and then the cells were incubated for 48 hours. To the collected cells was added a urea-containing lysis buffer and the mixture was incubated on ice for 30 minutes to lyse the cells. The lysed cells were centrifuged at 15,000 rpm for 30 minutes at 4°C and the supernatant was collected. The protein concentration in the supernatant was quantified by the Bradford assay (Bio-Rad).
Proteins in the supernatant were separated by electrophoresis using an SDS/polyacrylamide gel and transferred onto a nitrocellulose membrane (Bio-Rad). […] After the membrane was washed with TBS-T, the antigen-antibody complex was detected with the ECL-Prime kit (GE).

[1] = control (negative control nonsense RNA) introduced
[2] = Homo sapiens, 143B, control (negative control nonsense RNA) introduced
[3] = Homo sapiens, 143B, miR-100 introduced
[4] = Homo sapiens, 143B, miR-125b introduced
[5] = Homo sapiens, MG-63, MG63 cells, control (negative control nonsense RNA) introduced
[6] = Homo sapiens, MG-63, MG63 cells, miR-100 introduced
[7] = Homo sapiens, MG-63, MG63 cells, miR-125b introduced
[8] = Homo sapiens, HOS, control (negative control nonsense RNA) introduced
[9] = Homo sapiens, HOS, miR-100 introduced
[10] = Homo sapiens, HOS, miR-125b introduced

| Compound | IC50 (143B; [1]) | IC50 (143B; miR-100 introduced) | IC50 (143B; miR-125b introduced) | IC50 (MG63; MG63 cells, control (negative control nonsense RNA) introduced) | IC50 (MG63; MG63 cells, miR-100 introduced) | IC50 (MG63; MG63 cells, miR-125b introduced) | IC50 (MNNG/HOS; [1]) | IC50 (MNNG/HOS; miR-100 introduced) | IC50 (MNNG/HOS; miR-125b introduced) | expression level of BAK1 in NC versus miRNA-125b-introduced cell line (BAK1) | IC50 (143B; [2]) | IC50 (143B; [3]) | IC50 (143B; [4]) | IC50 (MG63; [5]) | IC50 (MG63; [6]) | IC50 (MG63; [7]) | IC50 (MNNG/HOS; [8]) | IC50 (MNNG/HOS; [9]) | IC50 (MNNG/HOS; [10]) |
| --- | --- | --- | --- | --- | --- | --- | --- | --- | --- | --- | --- | --- | --- | --- | --- | --- | --- | --- | --- |
| [NH2][Pt]([NH2])([Cl])[Cl] [CDDP, Cisplatin] | 12.3 µM | 14.5 µM | 14.1 µM | 2.91 µM | 2.57 µM | 1.63 µM | 5.7 µM | 6.97 µM | 7.32 µM | – | – | – | – | – | – | – | – | – | – |
| COc1cccc2c1C(=O)c1c(O)c3c(c(O)c1C2=O)C[C@@](O)(C(=O)CO)C[C@@H]3O[C@H]1C[C@H](N)[C@H](O)[C@H](C)O1 [DOX, Doxorubicin] | – | – | – | – | – | – | – | – | – | almost the same | 0.064 µM | 0.077 µM | 0.072 µM | 0.065 µM | 0.073 µM | 0.074 µM | 0.18 µM | 0.25 µM | 0.37 µM |
| CN(Cc1cnc2nc(N)nc(N)c2n1)c1ccc(C(=O)N[C@@H](CCC(=O)O)C(=O)O)cc1 [MTX, Methotrexate] | – | – | – | – | – | – | – | – | – | – | 1.49 µM | 3.21 µM | 3.97 µM | 3.09 µM | 7.18 µM | 7.74 µM | 1.05 µM | 2.52 µM | 4.03 µM |
